From patent publication US20240391931A1 (Bristol-Myers Squibb Company, priority 2021, published 2024)

Legend:
EGFR = EGFR (Homo sapiens, UniProt P00533); test: EGFR signaling (pEGFR Tyr1068/total EGFR MSD) in A431 cells; format: cell-based; parameters: endogenous in cells; host or cells: A431, N87; settings: for EC50: A431 cells, read-out: A431 pEGFR EC50; for Selectivity A431 EC50/BT474 EC50: ratio A431 pEGFR EC50 to BT474 pHER2 EC50; for Selectivity A431 EC50/HEKYVMA EC50: ratio A431 pEGFR EC50 to HEK YVMA pHER2 EC50
Sequence of EGFR (P00533 25-1210): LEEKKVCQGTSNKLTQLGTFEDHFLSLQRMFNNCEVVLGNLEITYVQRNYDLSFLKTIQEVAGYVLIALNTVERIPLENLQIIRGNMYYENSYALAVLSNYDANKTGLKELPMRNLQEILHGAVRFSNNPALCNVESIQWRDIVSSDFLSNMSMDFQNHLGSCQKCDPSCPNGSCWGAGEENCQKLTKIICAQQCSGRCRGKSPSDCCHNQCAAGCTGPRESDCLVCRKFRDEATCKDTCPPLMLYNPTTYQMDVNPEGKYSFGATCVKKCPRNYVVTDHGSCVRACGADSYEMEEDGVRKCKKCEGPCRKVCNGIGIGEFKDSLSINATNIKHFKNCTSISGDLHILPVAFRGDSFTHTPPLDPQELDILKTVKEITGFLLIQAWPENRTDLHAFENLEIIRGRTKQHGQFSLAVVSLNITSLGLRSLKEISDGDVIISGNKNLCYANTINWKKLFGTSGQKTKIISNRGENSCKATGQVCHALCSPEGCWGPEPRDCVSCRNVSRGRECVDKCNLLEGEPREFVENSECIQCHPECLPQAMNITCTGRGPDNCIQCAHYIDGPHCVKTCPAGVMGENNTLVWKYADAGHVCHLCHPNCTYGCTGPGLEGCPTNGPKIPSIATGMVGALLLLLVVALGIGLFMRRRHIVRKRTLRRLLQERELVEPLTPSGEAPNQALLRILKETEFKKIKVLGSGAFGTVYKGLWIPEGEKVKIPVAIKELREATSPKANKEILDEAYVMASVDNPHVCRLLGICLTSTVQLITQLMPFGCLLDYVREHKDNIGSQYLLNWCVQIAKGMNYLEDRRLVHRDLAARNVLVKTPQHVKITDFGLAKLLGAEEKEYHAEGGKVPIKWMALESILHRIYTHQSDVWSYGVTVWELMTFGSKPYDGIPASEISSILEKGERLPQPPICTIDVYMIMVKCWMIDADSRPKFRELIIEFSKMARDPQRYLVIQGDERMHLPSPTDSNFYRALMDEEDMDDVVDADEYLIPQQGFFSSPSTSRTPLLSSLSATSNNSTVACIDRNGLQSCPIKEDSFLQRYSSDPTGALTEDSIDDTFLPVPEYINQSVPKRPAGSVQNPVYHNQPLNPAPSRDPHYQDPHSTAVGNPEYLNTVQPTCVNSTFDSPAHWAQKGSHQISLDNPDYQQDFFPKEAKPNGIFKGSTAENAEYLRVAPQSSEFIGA
In short: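 Serum-starved A431 cells were pretreated 1.5 h in 1% FBS with compound (0.005–10 μM, 0.1% DMSO), then stimulated with 100 ng/mL human EGF for 10 min. Lysate pEGFR Tyr1068 was measured by MSD and normalized to total EGFR as % DMSO control; EC50 from variable-slope sigmoidal fit.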

HER2YVMA = HER2YVMA (Homo sapiens, UniProt P04626, INS775YVMA); test: HER2 signaling (pHER2) in Hek293-HER2YVMA cells; format: cell-based; parameters: expressed in transfected cells; host or cells: HEK293 (pool), Ba/F3 (clones), BEAS2B (clones); lentiviral vector pCDH-CMV-MCS-EF1-Neo; settings: 1.5 hr compound, 1% FBS, read-out: HEKYVMA pHER2 EC50
Sequence of HER2YVMA (P04626 with tags, fused parts or gaps INS775YVMA): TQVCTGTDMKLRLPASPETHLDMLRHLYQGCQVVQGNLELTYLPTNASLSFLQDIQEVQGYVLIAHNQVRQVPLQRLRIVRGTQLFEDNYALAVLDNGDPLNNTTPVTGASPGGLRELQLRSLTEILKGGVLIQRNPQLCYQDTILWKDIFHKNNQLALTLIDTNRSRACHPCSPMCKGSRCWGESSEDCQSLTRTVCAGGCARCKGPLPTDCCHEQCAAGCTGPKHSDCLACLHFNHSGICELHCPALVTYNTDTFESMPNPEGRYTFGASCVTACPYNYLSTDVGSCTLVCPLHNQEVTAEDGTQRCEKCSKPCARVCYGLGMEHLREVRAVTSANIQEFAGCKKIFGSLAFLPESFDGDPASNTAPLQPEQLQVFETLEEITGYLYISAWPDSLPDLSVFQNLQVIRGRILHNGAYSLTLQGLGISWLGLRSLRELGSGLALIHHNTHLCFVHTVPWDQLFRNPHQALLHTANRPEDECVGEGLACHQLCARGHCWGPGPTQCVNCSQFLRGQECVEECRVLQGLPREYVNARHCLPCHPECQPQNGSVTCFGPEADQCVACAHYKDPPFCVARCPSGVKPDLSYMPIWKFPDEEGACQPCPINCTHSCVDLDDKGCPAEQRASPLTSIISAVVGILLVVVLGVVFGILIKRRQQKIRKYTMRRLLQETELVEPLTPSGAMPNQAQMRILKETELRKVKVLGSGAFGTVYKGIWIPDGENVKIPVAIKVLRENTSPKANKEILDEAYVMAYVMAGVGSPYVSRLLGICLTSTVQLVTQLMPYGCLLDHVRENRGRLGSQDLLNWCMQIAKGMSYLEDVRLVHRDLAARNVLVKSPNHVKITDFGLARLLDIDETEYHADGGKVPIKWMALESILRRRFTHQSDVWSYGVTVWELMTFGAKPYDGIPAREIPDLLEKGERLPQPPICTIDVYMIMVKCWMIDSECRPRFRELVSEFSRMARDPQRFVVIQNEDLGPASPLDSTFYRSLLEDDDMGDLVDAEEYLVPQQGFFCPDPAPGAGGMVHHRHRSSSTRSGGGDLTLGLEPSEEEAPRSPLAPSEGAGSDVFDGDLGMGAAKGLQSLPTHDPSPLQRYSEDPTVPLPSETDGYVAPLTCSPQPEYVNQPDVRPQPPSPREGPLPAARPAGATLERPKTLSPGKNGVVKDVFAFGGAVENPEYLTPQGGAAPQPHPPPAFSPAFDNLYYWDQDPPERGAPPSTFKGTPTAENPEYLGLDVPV
In short: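 Lentivirally transduced HER2YVMA lines (HEK293 pool; BEAS2B clone) treated 1.5 h at 37 °C in 1% FBS medium with compound at 0.0005–1.1 μM. Lysates read by MSD immunoassay for pHER2 (Tyr1248) normalized to total HER2, as % DMSO control; EC50 from variable-slope sigmoidal fit.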

Row | SMILES | EC50 (EGFR) | Selectivity A431 EC50/BT474 EC50 (EGFR) | Selectivity A431 EC50/HEKYVMA EC50 (EGFR) | EC50 (HER2YVMA)
1 | CN(C)C/C=C/C(=O)N1CCc2c(sc3ncnc(Nc4ccc(Oc5ccc6ncnn6c5)c(Cl)c4)c23)C1 [Compound 5, (E)-1-(4-((4-([1,2,4]triazolo[1,5-a]pyridin-6-yloxy)-3-chlorophenyl)amino)-5,8-dihydropyrido[4′,3′:4,5]thieno[2,3-d]pyrimidin-7(6H)-yl)-4-(dimethylamino)but-2-en-1-one] | 100 to 1000 nM | – | B (B: ≥ 20 and < 100) | < 100 nM
2 | Cc1cc(Nc2ncnc3sc4c(c23)CCN(C(=O)/C=C/CN2CC3CCC(C3)C2)C4)ccc1Oc1ccc2ncnn2c1 [Compound 20] | < 100 nM | B (B: ≥ 20 and < 100) | B (B: ≥ 20 and < 100) | < 100 nM
3 | Cc1ncc(Oc2ccc(Nc3ncnc4sc5c(c34)CCN(C(=O)/C=C/CN(C)C)C5)cc2C)cn1 [Compound 21, (E)-4-(dimethylamino)-1-(4-((3-methyl-4-((2-methylpyrimidin-5-yl)oxy)phenyl)amino)-5,8-dihydropyrido[4′,3′:4,5]thieno[2,3-d]pyrimidin-7(6H)-yl)but-2-en-1-one] | 100 to 1000 nM | B (B: ≥ 20 and < 100) | B (B: ≥ 20 and < 100) | < 100 nM
4 | Cc1cc(Nc2ncnc3sc4c(c23)CCN(C(=O)/C=C/CN(C)C)C4)ccc1Oc1ccc2[nH]ncc2c1 [Compound 22, (E)-1-(4-((4-((1H-indazol-5-yl)oxy)-3-methylphenyl)amino)-5,8-dihydropyrido[4′,3′:4,5]thieno[2,3-d]pyrimidin-7(6H)-yl)-4-(dimethylamino)but-2-en-1-one] | < 100 nM | D (D: ≥ 5 and < 10) | E (E: >1 and < 5) | < 100 nM
5 | Cc1ccc(Oc2ccc(Nc3ncnc4sc5c(c34)CCN(C(=O)/C=C/CN3CC4CC3CO4)C5)cc2C)cn1 (centres unmarked) [Compound 26] | < 100 nM | D (D: ≥ 5 and < 10) | D (D: ≥ 5 and < 10) | < 100 nM
6 | CNC(=O)CNC/C=C/C(=O)N1CCc2c(sc3ncnc(Nc4ccc(Oc5ccc(C)nc5)c(C)c4)c23)C1 [Compound 39] | 1000 to 10000 nM | C (C: ≥ 10 and < 20) | D (D: ≥ 5 and < 10) | 100 to 350 nM
7 | Cc1ccc(Oc2ccc(Nc3ncnc4sc5c(c34)CCN(C(=O)/C=C/CNC3CC3)C5)cc2C)cn1 [Compound 40] | < 100 nM | B (B: ≥ 20 and < 100) | B (B: ≥ 20 and < 100) | < 100 nM
8 | Cc1ccc(Oc2ccc(Nc3ncnc4sc5c(c34)CCN(C(=O)/C=C/CN3C4CCC3CC4)C5)cc2C)cn1 [Compound 44] | 100 to 1000 nM | D (D: ≥ 5 and < 10) | E (E: >1 and < 5) | < 100 nM
9 | CCN1CCN(C/C=C/C(=O)N2CCc3c(sc4ncnc(Nc5ccc(Oc6ccc(C)nc6)c(C)c5)c34)C2)CC1 [Compound 46] | 1000 to 10000 nM | B (B: ≥ 20 and < 100) | C (C: ≥ 10 and < 20) | < 100 nM
10 | Cc1ccc(Oc2ccc(Nc3ncnc4sc5c(c34)CCN(C(=O)/C=C/CNC3CCOC3)C5)cc2C)cn1 (centres unmarked) [Compound 47] | 100 to 1000 nM | C (C: ≥ 10 and < 20) | C (C: ≥ 10 and < 20) | < 100 nM
11 | CC(=O)N1CCN(C/C=C/C(=O)N2CCc3c(sc4ncnc(Nc5ccc(Oc6ccc(C)nc6)c(C)c5)c34)C2)CC1 [Compound 51] | 1000 to 10000 nM | C (C: ≥ 10 and < 20) | E (E: >1 and < 5) | 100 to 350 nM

Further lines, results first:

Row | EC50 (EGFR) | Selectivity A431 EC50/BT474 EC50 (EGFR) | Selectivity A431 EC50/HEKYVMA EC50 (EGFR) | EC50 (HER2YVMA) | SMILES
12 | 100 to 1000 nM | C (C: ≥ 10 and < 20) | D (D: ≥ 5 and < 10) | < 100 nM | Cc1ccc(Oc2ccc(Nc3ncnc4sc5c(c34)C(C)CN(C(=O)C=CCN(C)C)C5)cc2C)cn1 (single isomer, unassigned) [Compound 105]
13 | 100 to 1000 nM | B (B: ≥ 20 and < 100) | C (C: ≥ 10 and < 20) | < 100 nM | Cc1ccc(Oc2ccc(Nc3ncnc4sc5c(c34)C(C)CN(C(=O)C=CCN(C)C)C5)cc2C)cn1 (single isomer, unassigned) [Compound 106]
14 | 100 to 1000 nM | B (B: ≥ 20 and < 100) | E (E: >1 and < 5) | 100 to 350 nM | Cc1cc(Nc2ncnc3sc4c(c23)CCN(C(=O)/C=C/CN(C)C)C4)ccc1Oc1ccc2ncnn2c1 [Compound 3, (E)-1-(4-((4-([1,2,4]triazolo[1,5-a]pyridin-6-yloxy)-3-methylphenyl)amino)-5,8-dihydropyrido[4′,3′:4,5]thieno[2,3-d]pyrimidin-7(6H)-yl)-4-(dimethylamino)but-2-en-1-one]
15 | 100 to 1000 nM | B (B: ≥ 20 and < 100) | A (A: ≥100) | < 100 nM | C=CC(=O)N1CCc2c(sc3ncnc(Nc4ccc(Oc5ccc6ncnn6c5)c(Cl)c4)c23)C1 [Compound 4, 1-(4-((4-([1,2,4]triazolo[1,5-a]pyridin-6-yloxy)-3-chlorophenyl)amino)-5,8-dihydropyrido[4′,3′:4,5]thieno[2,3-d]pyrimidin-7(6H)-yl)prop-2-en-1-one]
16 | < 100 nM | D (D: ≥ 5 and < 10) | E (E: >1 and < 5) | < 100 nM | Cc1cc(Nc2ncnc3sc4c(c23)CCN(C(=O)/C=C/CN(C)C)C4)ccc1Oc1ccc2cn[nH]c2c1 [Compound 23, (E)-1-(4-((4-((1H-indazol-6-yl)oxy)-3-methylphenyl)amino)-5,8-dihydropyrido[4′,3′:4,5]thieno[2,3-d]pyrimidin-7(6H)-yl)-4-(dimethylamino)but-2-en-1-one]
17 | 100 to 1000 nM | B (B: ≥ 20 and < 100) | C (C: ≥ 10 and < 20) | < 100 nM | Cc1ccc(Oc2ccc(Nc3ncnc4sc5c(c34)CCN(C(=O)/C=C/CN(C)C(C)(C)C)C5)cc2C)cn1 [Compound 33]
18 | 100 to 1000 nM | C (C: ≥ 10 and < 20) | E (E: >1 and < 5) | < 100 nM | Cc1ccc(Oc2ccc(Nc3ncnc4sc5c(c34)CCN(C(=O)/C=C/CN3CC4C(CO)C4C3)C5)cc2C)cn1 (centres unmarked) [Compound 34]
19 | > 10000 nM | A (A: ≥100) | B (B: ≥ 20 and < 100) | 100 to 350 nM | Cc1ccc(Oc2ccc(Nc3ncnc4sc5c(c34)CCN(C(=O)/C=C/CN(CCO)CCO)C5)cc2C)cn1 [Compound 37]
20 | 100 to 1000 nM | C (C: ≥ 10 and < 20) | D (D: ≥ 5 and < 10) | < 100 nM | Cc1ccc(Oc2ccc(Nc3ncnc4sc5c(c34)CCN(C(=O)/C=C/CNC3COC3)C5)cc2C)cn1 [Compound 38]
21 | < 100 nM | B (B: ≥ 20 and < 100) | C (C: ≥ 10 and < 20) | < 100 nM | Cc1ccc(Oc2ccc(Nc3ncnc4sc5c(c34)CCN(C(=O)/C=C/CN3CCCC3C(N)=O)C5)cc2C)cn1 (centres unmarked) [Compound 41]
22 | 100 to 1000 nM | B (B: ≥ 20 and < 100) | B (B: ≥ 20 and < 100) | < 100 nM | Cc1ccc(Oc2ccc(Nc3ncnc4sc5c(c34)CCN(C(=O)/C=C/CN3CCCOCC3)C5)cc2C)cn1 [Compound 42]
23 | > 10000 nM | B (B: ≥ 20 and < 100) | C (C: ≥ 10 and < 20) | 350 to 1000 nM | Cc1ccc(Oc2ccc(Nc3ncnc4sc5c(c34)CCN(C(=O)/C=C/CN3CC(O)CO3)C5)cc2C)cn1 (centres unmarked) [Compound 43]
24 | 100 to 1000 nM | C (C: ≥ 10 and < 20) | D (D: ≥ 5 and < 10) | < 100 nM | Cc1ccc(Oc2ccc(Nc3ncnc4sc5c(c34)CCN(C(=O)/C=C/CNCCS(C)(=O)=O)C5)cc2C)cn1 [Compound 45]
25 | 100 to 1000 nM | B (B: ≥ 20 and < 100) | B (B: ≥ 20 and < 100) | < 100 nM | Cc1ccc(Oc2ccc(Nc3ncnc4sc5c(c34)CCN(C(=O)/C=C/CNCC3CN(C)CCO3)C5)cc2C)cn1 (centres unmarked) [Compound 48]
26 | 100 to 1000 nM | B (B: ≥ 20 and < 100) | D (D: ≥ 5 and < 10) | < 100 nM | Cc1ccc(Oc2ccc(Nc3ncnc4sc5c(c34)CCN(C(=O)/C=C/CNCc3cc(C)n[nH]3)C5)cc2C)cn1 [Compound 49]
27 | < 100 nM | D (D: ≥ 5 and < 10) | C (C: ≥ 10 and < 20) | < 100 nM | Cc1ccc(Oc2ccc(Nc3ncnc4sc5c(c34)CCN(C(=O)/C=C/CNCc3ccsc3)C5)cc2C)cn1 [Compound 52]
